Earlier results on 1 compound are cited in article PMC12642135 (Food and Waterborne Parasitology, 2025).

Entries after “also recorded” stand apart in the source; their conditions may differ.

The subject of the data set is Toxoplasma gondii. On the set-up: method as in Kul et al., 2013. As to conditions: lambs, applied from the second week pi (day 14 pi) onwards; ref Kul et al., 2013.

Consider `Cc1cc(-n2c(=O)[nH]c(=O)n(C)c2=O)ccc1Oc1ccc(SC(F)(F)F)cc1` [toltrazuril], for which the “Reduction of tissue cysts” value is “mildly reduced; also recorded: partial reduction”.
